The values below come from US20260274851A1, “MODULATORS OF TRPML, THEIR COMPOSITIONS AND METHODS OF USE” (Caraway Therapeutics, Inc., priority 2023, published 2026).

Structures are written as SMILES.

One assay concerns the target Human TRPML1 (Homo sapiens, UniProt Q9GZU1). Briefly: Fluorescent TRPML1 assay (Fluo4 calcium fluorescence, HEK-293 Trex cells). Type of assay: cell-based. Particulars: HEK-293 Trex cells expressing surface-directed hTRPML1, Fluo4 fluorescence. As to the method:
(§1) HEK-293 Trex cells were stably transfected with a construct consisting of the human coding sequence for TRPML1 cloned into the tet-inducible plasmid pCDNA5 T/O. Mutations were introduced into the TRPML1 sequence to facilitate expression on the cell surface (Silvia Vergarajauregui. Rosa Puertollano Traffic. 2006 March: 7(3): 337-353). Briefly, the cells are cultured in 150 mm round tissue culture dishes containing 20 mL of media. The day before the assay the cells are rinsed with DPBS—Ca —Mg and then treated briefly with Trypsin-EDTA. The Trypsin-EDTA is diluted with growth media, and cells are counted. 38×10^6 cells are re-plated into 150 mm round tissue culture dishes in media containing 0.5 g/mL doxycycline to induce expression of hTRPML1.
(§2) The day of the experiment cells are lifted from the plates as above and collected by centrifugation. The cells are then suspended in dye loading buffer consisting of Ringer's solution supplemented with 0.1% Pluronic Acid and 1 micromolar Fluo4-AM dye. Cells are loaded for ~60 minutes in the dark with occasional mixing. The cells are collected by centrifugation, the loading media aspirated, and the cells resuspended in 25 mL Ringer's solution and incubated ~60 minutes in the dark. The cells are again collected by centrifugation, rinsed in Ringer's Solution and resuspended to 0.2×10^6 cells/mL in modified Ringer's solution containing 10 mM calcium.
(§3) Compounds are dissolved to a concentration of 10 millimolar with DMSO. Compound plates are created by dispensing compounds into 384 well black wall clear bottom plates (Greiner 781091). Positive and negative controls are included on each plate. Typically, different amounts of each compound are tested ranging from 100 nanoMoles (20 micromolar final concentration) decreasing in half-log steps to 31 picoMoles (6 nanomolar final concentration). Each concentration is typically tested in triplicate.
(§4) 50 microliters of dye-loaded cells are dispensed into each well of the compound assay plate created above. The fluorescence in each well is then determined with an excitation wavelength of 480 nm and an emission wavelength of 540 nm using either a Molecular Devices SpectraMax multimode plate reader or a Hamamatsu FDSS/uCell plate imager.
(§5) The resulting fluorescence for each well is exported as an ascii file and loaded into our LIMS for analysis. The percent activity of each compound at each concentration is determined by comparison to the positive and negative control wells included in each plate.
(§6) EC50 values were calculated using a non-linear regression of Prism. In the table, “A” indicates an EC50 of less than 100 nM, “B” indicates an EC50 range from 100 nM to 500 nM; “C” indicates an EC50 range from 500 nM to 2 μM; and “D” indicates an EC50 greater than 2 μM.

A further assay concerns the target T1, Human TRPML3 (Homo sapiens, UniProt Q8TDD5).
T1 construct: expressed in transfected cells
T1 sequence (Q8TDD5 1-553): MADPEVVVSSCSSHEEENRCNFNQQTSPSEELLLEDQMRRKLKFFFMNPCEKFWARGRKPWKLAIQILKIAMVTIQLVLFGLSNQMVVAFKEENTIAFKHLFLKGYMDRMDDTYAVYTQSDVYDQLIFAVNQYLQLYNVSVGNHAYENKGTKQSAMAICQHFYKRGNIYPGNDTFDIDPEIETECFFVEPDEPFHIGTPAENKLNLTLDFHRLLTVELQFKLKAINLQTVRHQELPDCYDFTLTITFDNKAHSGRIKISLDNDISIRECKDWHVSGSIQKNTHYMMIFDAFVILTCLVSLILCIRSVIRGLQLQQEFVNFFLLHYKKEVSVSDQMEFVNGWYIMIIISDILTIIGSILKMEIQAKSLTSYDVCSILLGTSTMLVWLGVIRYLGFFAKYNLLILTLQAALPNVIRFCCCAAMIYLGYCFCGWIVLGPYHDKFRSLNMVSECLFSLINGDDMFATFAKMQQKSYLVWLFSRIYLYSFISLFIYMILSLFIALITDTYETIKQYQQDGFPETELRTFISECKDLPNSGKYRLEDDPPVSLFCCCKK
Briefly: Fluorescent TRPML3 assay (as for TRPML1). As to conditions: as TRPML1 assay with TRPML3 subtype. Type of assay: cell-based. As to the method:
as §1, §2, §3, §4, §5
Assays for TRPML2 and TRPML3 were performed as above for TRPML1, by substituting the appropriate TRPML2 or TRPML3 subtype for the TRPML1.
as §6

The target in a further assay is T2, Human TRPML2 (Homo sapiens, UniProt Q8IZK6).
T2 construct: expressed in transfected cells
T2 sequence (Q8IZK6 1-566): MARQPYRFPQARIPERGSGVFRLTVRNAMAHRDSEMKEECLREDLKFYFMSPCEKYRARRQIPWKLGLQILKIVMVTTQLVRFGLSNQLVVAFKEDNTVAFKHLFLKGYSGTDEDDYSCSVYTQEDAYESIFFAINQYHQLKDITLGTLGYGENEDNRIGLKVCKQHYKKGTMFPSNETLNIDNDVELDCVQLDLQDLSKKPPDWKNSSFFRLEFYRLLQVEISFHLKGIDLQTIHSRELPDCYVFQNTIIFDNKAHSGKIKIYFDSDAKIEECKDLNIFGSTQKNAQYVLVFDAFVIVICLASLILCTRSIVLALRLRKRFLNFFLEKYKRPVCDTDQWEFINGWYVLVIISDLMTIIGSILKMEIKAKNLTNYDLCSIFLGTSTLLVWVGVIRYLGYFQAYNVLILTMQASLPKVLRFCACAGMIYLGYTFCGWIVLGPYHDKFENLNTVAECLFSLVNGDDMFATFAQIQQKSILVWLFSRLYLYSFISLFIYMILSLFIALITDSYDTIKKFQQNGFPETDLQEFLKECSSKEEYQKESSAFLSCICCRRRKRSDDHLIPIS
Briefly: Fluorescent TRPML2 assay (as for TRPML1). Type of assay: cell-based. As to conditions: as TRPML1 assay with TRPML2 subtype. As to the method: as §1, with “38×10^6 cells are re-plated into 150 mm round tissue culture dishes in media containing 0.5 g/mL doxycycline to induce expression of hTRPML1.” left out
as §4
The resulting fluorescence for each well is exported as an ascii file and loaded into our LIMS for analysis. The percent activity of each compound at each concentration is determined by comparison to the positive and negative control wells included in each plate. […]
EC50 values were calculated using a non-linear regression of Prism. […]

Another assay deals with TRPMLs. Particulars: high concentrations needed; background statement; cited from earlier work.

Sequence of Human TRPML1 (Q9GZU1 whole entry L15A/L16A/L577A/L578A, form open): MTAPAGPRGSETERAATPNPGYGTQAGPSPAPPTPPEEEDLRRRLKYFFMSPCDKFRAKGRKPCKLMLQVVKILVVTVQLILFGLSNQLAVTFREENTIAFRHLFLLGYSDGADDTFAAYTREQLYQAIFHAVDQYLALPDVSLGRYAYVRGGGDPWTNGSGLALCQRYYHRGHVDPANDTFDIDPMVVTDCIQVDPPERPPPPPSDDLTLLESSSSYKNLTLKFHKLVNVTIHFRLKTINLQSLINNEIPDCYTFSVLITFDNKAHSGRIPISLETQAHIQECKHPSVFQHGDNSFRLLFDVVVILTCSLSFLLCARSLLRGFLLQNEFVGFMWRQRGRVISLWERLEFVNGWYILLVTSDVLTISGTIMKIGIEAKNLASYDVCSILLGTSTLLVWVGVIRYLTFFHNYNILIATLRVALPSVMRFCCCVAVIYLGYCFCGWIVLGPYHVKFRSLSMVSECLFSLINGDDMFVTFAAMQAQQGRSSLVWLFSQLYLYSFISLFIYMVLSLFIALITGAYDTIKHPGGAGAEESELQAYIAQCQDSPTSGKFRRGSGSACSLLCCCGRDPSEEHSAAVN

For orientation: EC50 means the concentration that produces a half-maximal response. As for `C[C@@H]1CN(c2ncnc3c2c(-c2ccccc2)cn3-c2cccc(C#N)c2)[C@@H](C)CN1C(=O)C(C)(C)O` [Compound 101, 3-(4-((2S,5R)-4-(2-hydroxy-2-methylpropanoyl)-2,5-dimethylpiperazin-1-yl)-5-phenyl-7H-pyrrolo[2,3-d]pyrimidin-7-yl)benzonitrile], the values for the EC50 at Human TRPML1 and at Human TRPML3 were 0.1 to 0.5 µM and greater than 2 µM, respectively.
The matching figures for `C[C@@H]1CN(c2ncnc3c2c(-c2ccccc2F)cn3-c2cccc(C#N)c2)[C@@H](C)CN1C(=O)C(C)(C)O` [Compound 102, 3-(5-(2-fluorophenyl)-4-((25,5R)-4-(2-hydroxy-2-methylpropanoyl)-2,5-dimethylpiperazin-1-yl)-7H-pyrrolo[2,3-d]pyrimidin-7-yl)benzonitrile]: 0.1 to 0.5 µM and greater than 2 µM.
As to `COC(C)(C)C(=O)N1C[C@H](C)N(c2ncnc3c2c(-c2ccccc2F)cn3-c2cccc(F)c2)C[C@H]1C` [Compound 103, 1-((2R,5S)-4-(5-(2-fluorophenyl)-7-(3-fluorophenyl)-7H-pyrrolo[2,3-d]pyrimidin-4-yl)-2,5-dimethylpiperazin-1-yl)-2-methoxy-2-methylpropan-1-one], the concentration giving a half-maximal response (EC50) at Human TRPML1 is less than 0.1 µM; on Human TRPML3 it was less than 0.1 µM; on Human TRPML2 it was 0.1 to 0.5 µM.
For the compound `C[C@@H]1CN(c2ncnc3c2c(-c2ccccc2F)cn3-c2cc(F)cc(F)c2)[C@@H](C)CN1C(=O)C(C)(C)O` [Compound 104, 1-((2R,5S)-4-(7-(3,5-difluorophenyl)-5-(2-fluorophenyl)-7H-pyrrolo[2,3-d]pyrimidin-4-yl)-2,5-dimethylpiperazin-1-yl)-2-hydroxy-2-methylpropan-1-one], the EC50 on Human TRPML1 was 0.5 to 2 µM; at Human TRPML3, greater than 2 µM.
Regarding `C[C@@H]1CN(c2ncnc3c2c(-c2ccccc2F)cn3-c2cccc(Cl)c2)[C@@H](C)CN1C(=O)C(C)(C)O` [Compound 105, 1-((2R,5S)-4-(7-(3-chlorophenyl)-5-(2-fluorophenyl)-7H-pyrrolo[2,3-d]pyrimidin-4-yl)-2,5-dimethylpiperazin-1-yl)-2-hydroxy-2-methylpropan-1-one], the results for the EC50 on Human TRPML1 and on Human TRPML3 were 0.1 to 0.5 µM and 0.5 to 2 µM, respectively.
With `CC1CC(C)(C)N(C(=O)CN2C(=O)c3ccccc3C2=O)c2ccccc21` (stereo not drawn) [ML-SA1], the “Concentration needed to effectively activate TRPMLs” value in the assay with TRPMLs is on record as ~ 10 μM.
